These results are taken from US20090311203A1, “GEM-DIFLUORIDE C-GLYCOPEPTIDE COMPOUNDS, THEIR PREPARATION AND USE PARTICULARLY FOR PRESERVATION OF BIOLOGICAL MATERIALS” (INSTITUT NATIONAL DES SCIENCES APPLIQUEES DE ROUEN (INSA), priority 2006, published 2009).

Structures are written as SMILES. Several values for one entry are separate records, joined by “and”; a condition that tells them apart may be missing. Equal values may be shown once.

What all share (assay type): cell-based
Assay [1] relates to primary adult skin fibroblasts. The assay is described as follows: Protection of fibroblasts against UV-C exposure. Conditions: 37° C., 8.6 mM; for cell protection against UV (in words): UV-C 2 hours; for live cells still observed: UV-C (254 nm) for 2 hours. The protocol:
In the following experiments, the studies were conducted at 37° C. on adult primary skin fibroblasts. The cells were exposed to UV-C irradiation for 2 hours in the presence of AAGP derivatives.

The test system of another assay is HELA cells. Briefly: Survival of HELA cells subjected to UVC. Conditions: exposed to UVC; low concentrations; FIGS. 37, 38 and 39. As to the method:
FIGS. 37, 38 and 39 are representations of the effects of the various derivatives on the survival of HELA cells subjected to UVC.
Studies were conducted on HELA cells, exposed to UVC, in the presence of the various synthesised compounds, at low concentrations.

For assay [2], the system named is primary adult skin fibroblasts. Briefly: Preservation of fibroblasts at low temperature (−3° C.). Conditions: 8.6 mM. As to the method: The purpose of the following experiment is to test the preservation activity of AAGP 11 compounds at low temperatures.
The cells are thus incubated at −3° C. in the presence of the compound AAGP 11.

For `COC(=O)[C@H](C)NC(=O)[C@H](CCCCNC(=O)C(F)(F)[C@]1(O)O[C@H](COCc2ccccc2)[C@H](OCc2ccccc2)[C@H](OCc2ccccc2)[C@H]1OCc1ccccc1)NC(=O)OCc1ccccc1` [AAGP-15], the “cell protection against UV (in words)” value in assay [1] is “excellent protective properties”.

`C[C@H](NC(=O)[C@@H](N)CCCCNC(=O)C(F)(F)[C@]1(O)O[C@H](CO)[C@H](O)[C@H](O)[C@H]1O)C(=O)O` [Compound 11]: in assay [1], the “cell protection against UV (in words)” value is “high level of cell”. The “live cells still observed” value was 92% live cells are still in assay [1] (after 72 hours, serum-free medium with 0.5 mM EDTA, all control cells dead) and “After 4 days, 60% live” in assay [1] (after 4 days, almost all dead in the control). In addition, the “survival of HELA cells compared to the control (in words)” value in the assay on HELA cells is recorded as “Very satisfactory results”. For the same compound, the survival entry in assay [2] (after 6 days at −3° C., serum-free medium with 0.5 mM EDTA, control cells all dead) was “approximately 100% survival”. In addition, the “cell preservation activity at low temperature (in words)” value in assay [2] (−3° C., listed as AAGP-11) is “very high preservation activity and 11 displays a very high”.

In the case of `C[C@H](NC(=O)[C@@H](N)CCCCNC(=O)C(F)(F)[C@]1(O)O[C@H](CO)[C@H](O)[C@H](O)[C@H]1O)C(=O)O` [Compound 12], the “survival of HELA cells compared to the control (in words)” value in the assay with HELA cells is on record as “inferior results compared to the control”.

For the compound `C[C@H](NC(=O)[C@@H](N)CCCNC(=O)C(F)(F)[C@]1(O)O[C@H](CO)[C@H](O)[C@H](O)[C@H]1O)C(=O)O` [Compound 26], the “survival of HELA cells compared to the control (in words)” value in the assay on HELA cells was “inferior results compared to the control”.

`N[C@@H](CCCCNC(=O)C(F)(F)[C@]1(O)O[C@H](CO)[C@H](O)[C@H](O)[C@H]1O)C(=O)NCC(=O)O` [Compound 30]: the “survival of HELA cells compared to the control (in words)” value in the assay with HELA cells is recorded as “improve the survival of these cells compared to the control”.
